Data set [1] concerns S. aureus AB. It counts as cell-based, Staphylococcus aureus.
Data set [2] concerns the target T1, rSttH (Streptomyces noursei, UniProt Q1MW86).
T1 construct: purified rSttH from E. coli M15 (pREP4) carrying pQE30-SHF6R; 6xHis (N); made in house; host or cells: E. coli M15 (pREP4) carrying pQE30-SHF6R
The data set can be described thus: rSttH reaction rate test (kinetic analysis, HPLC, Lineweaver-Burk). It counts as biochemical, Streptomyces albulus NBRC14147. Particulars: for Vmax: substrate of rSttH, 30° C., 100 mM NaPB (pH 6.5), U = ST-acid production per minute (μmol). The protocol:
(§1) In accordance with the manufacturer's (Qiagen) protocols, a reaction mixture (500 μL) was prepared using 100 mM sodium phosphate buffer (pH 6.5), 1 mg/mL ST-F or ST-D, and 100 μg/mL of purified rSttH from E. coli M15 (pREP4) carrying pQE30-SHF6R. The reaction mixture was reacted for 1 hour at 30° C. with or without rSttH, and then extracted with chloroform to remove the proteins. The water layer was analyzed by reverse-phase HPLC using an ion-pair reagent. The analytical conditions were: column, C18 reverse-phase column (COSMOSIL 5C18-AR—II, 250×4.6 mm, Nacalai Tesque, Kyoto, Japan); column temperature, 30° C.; detection, 210 nm; and flow rate, 1 mL/minute. Two different mobile phases were used, one of 0.1% heptafluorobutyric acid+18% acetonitrile (ST-F reaction) and one of 0.1% heptafluorobutyric acid+23% acetonitrile (ST-D reaction). The kinetic assays were performed under conditions similar to those described previously except that the enzyme concentrations (2 μg/mL) and reaction times (5 minutes) were reduced to make them compatible with measurement of steady-state kinetic parameters. All tests were carried out under linear conditions. The reactions were terminated by addition of 15 μl 2N HCl, and then analyzed by HPLC. The kinetic constants were estimated using a Lineweaver-Burk plot. The native molecular weight of the rSttH was estimated by gel filtration using a COSMOSIL 5Diol-300 (7.8 mm×600 mm) column (Nacalai Tesque) which had been equilibrated with 20 mM sodium phosphate buffer (pH 7.0) containing 100 mM sodium sulfate.
(§2) The optimal pH was measured in several buffers (100 mM) with differing pH values: sodium phosphate (NaPB), pH 4.5 to 7; Tris-HCl, pH 7 to 10. Activity peaked at a pH of 6.5 and declined rapidly with decreasing pH (around 4). The effect of temperature on enzymatic activity was also investigated within the range of 25° C. to 75° C. using 100 mM NaPB buffer (pH 6.5). Although enzymatic activity was greatest at 45° C., approximately 90% of maximum activity was also detected at 65° C.

Data set [3] concerns T2, rSttH.
T2 construct: purified rSttH from E. coli M15 (pREP4) carrying pQE30-SHF6R; 6xHis (N); made in house; host or cells: E. coli M15 (pREP4) carrying pQE30-SHF6R
The data set is described as above. Particulars: substrate of rSttH; 30° C., 100 mM NaPB (pH 6.5); average ± s.d. of three tests. It counts as biochemical, Streptomyces albulus NBRC14147. The protocol: as §1, §2

The subject of data set [4] is S. aureus FIR1169. Format: cell-based, Staphylococcus aureus.
Data set [5] relates to S. cerevisiae CKY8. Put plainly: MIC of ST-F and ST-D in S. cerevisiae CKY8 overexpressing sttH or nat gene. Particulars: SC medium, 2 days at 30° C. It counts as cell-based, Saccharomyces cerevisiae. The protocol: After sequence confirmation, the amplified fragments were inserted into the same sites in pAD4 to prepare pAD4-nat and pAD4-sttH, in which these genes were expressed under the control of the constitutive promoter of yeast alcohol dehydrogenase. S. cerevisiae CKY8 strain carrying pAD4-nat and pAD4-sttH was grown in SC-Leu medium containing ST (ST-F or ST-D, 0 to 4 mM), and the MICs of ST-F and ST-D were determined.
(§3) Although it was previously reported that the biological activity of chemically synthesized ST-F-acid is negligible in microorganisms and plants, that of ST-D-acid remains unclear. Therefore, we determined the respective MICs of ST-F and ST-D in E. coli and Saccharomyces cerevisiae overexpressing the sttH gene or nat gene (Table 3). […] To confirm this, the selective toxicity of ST-acids and STs against various microorganisms including gram-positive and -negative bacteria, clinically isolated pathogenic bacteria and yeasts was investigated. […] A “c/a” in parentheses in the table represents the ratio of the minimum inhibitory concentrations of ST-F-acid and ST-F, while “d/b” represents the ratio of the minimum inhibitory concentrations of ST-D-acid and ST-D.

Data set [6] has as its system S. cerevisiae S288C. The data set can be described thus: MIC test of STs and ST-acids. Format: cell-based, Saccharomyces cerevisiae. Particulars: YPD medium; 2 days at 30° C.
Data set [7] deals with S. pombe L972. The data set can be described thus: MIC test of STs and ST-acids. Particulars: YPD medium; 2 days at 30° C. Format: cell-based, Schizosaccharomyces pombe.
Data set [8] concerns E. coli W3110. Put plainly: MIC test of STs and ST-acids. Format: cell-based, Escherichia coli. To be noted: Heart Infusion Broth; 1 day at 37° C.
Data set [9] relates to B. subtilis NBRC13169. The data set can be described thus: MIC test of STs and ST-acids. To be noted: Heart Infusion Broth; 1 day at 37° C. It counts as cell-based, Bacillus subtilis.
For data set [10], the system named is E. coli XL1-Blue MRF'. The data set can be described thus: MIC of ST-F and ST-D in E. coli XL1-Blue MRF' overexpressing sttH or nat gene. Format: cell-based, Escherichia coli. To be noted: LB medium, 1 day at 37° C. The protocol: Restriction enzyme sites (GGATCC or AAGCTT, underlined) and a stop codon (TCA, underlined) were inserted into these primers. An expression vector (pQE30-nat) having incorporated therein an amplified fragment including these primers was constructed using pQE30. The MIC of ST-F and ST-D in an E. coli XL1-Blue MRF′ strain carrying pQE30-nat and pQE30-SHF6R were determined on LB agar flat plates containing ampicillin (100 μg/mL), 0.1 mM IPTG and STs (0 to 4 mM). S. cerevisiae CKY8 strain overexpressing the nat gene and the sttH gene was also prepared as follows. The following two sets of primers having restriction enzyme sites (AAGCTT or CTGCAG, underlined) and stop codons (TCA, underlined) added thereto were designed and used in PCR:
as §3

The subject of data set [11] is gram-positive and -negative bacteria, clinically isolated pathogenic bacteria and yeasts. Format: cell-based.
Data set [12] concerns bacteria, fungi and plants. Particulars: chemically synthesized from ST-F; reports of Inamori and Taniyama; cited from earlier work.
Data set [13] is described as follows: Enzymatic properties of rSttH (effect of pH and temperature). It counts as biochemical. The protocol:
as §2

Where [14] appears, read: Heart Infusion Broth, 1 day at 37° C.

≈ marks a conversion by molar mass, not a printed value. Like-named read-outs stand apart in the source and are kept apart here. A value given as a limit tells only on which side of the number the result lay.

Regarding `NCCC[C@H](N)CC(=O)NCCC[C@H](N)CC(=O)NCCC[C@H](N)CC(=O)N[C@@H]1[C@H](O)[C@@H](OC(N)=O)[C@@H](CO)O[C@H]1NC1=N[C@@H]2C(=O)NC[C@@H](O)[C@H]2N1` [ST-D, streptothricin D], the “Minimum inhibitory concentration (MIC)” value in data set [1] (setting [14]) was 0.004 mM (≈ 3.04 µg/mL); in data set [4] (setting [14]), 0.004 mM (≈ 3.04 µg/mL); in data set [5] (CKY8 + pAD4-nat), above 4000 µM; in data set [5] (CKY8 + pAD4-sttH), above 4000 µM; in [5] (CKY8 + pAD4) it was below 30 µM; in data set [6], 4 µM (≈ 3.04 µg/mL). The “Minimum inhibitory concentration (MIC)” value in data set [7] is 8 µM (≈ 6.07 µg/mL); in [8], 8 µM (≈ 6.07 µg/mL); in data set [9], 4 µM (≈ 3.04 µg/mL); in data set [10] (XL1-Blue MRF' + pQE30-SHF6R), below 30 µM; in [10] (XL1-Blue MRF' + pQE30-nat) it was 2000 µM; in data set [10] (XL1-Blue MRF' + pQE30), below 30 µM. In addition, the Vmax in [2] is 68.95 ± 13.9 U/mg. Besides, the Km in data set [3] stood at 5740 ± 990 µM.

Consider `NCCC[C@H](N)CC(=O)N[C@@H]1[C@H](O)[C@@H](OC(N)=O)[C@@H](CO)O[C@H]1NC1=N[C@@H]2C(=O)NC[C@@H](O)[C@H]2N1` [ST-F, streptothricin F], for which the “Minimum inhibitory concentration (MIC)” value is 0.016 mM (≈ 8.04 µg/mL) in [1] (setting [14]); 0.016 mM (≈ 8.04 µg/mL) in data set [4] (setting [14]); above 4000 µM in data set [5] (CKY8 + pAD4-nat); above 4000 µM in data set [5] (CKY8 + pAD4-sttH); 500 µM in [5] (CKY8 + pAD4); 62 µM (≈ 31.2 µg/mL) in data set [6]. In addition, the “Minimum inhibitory concentration (MIC)” value is 125 µM (≈ 62.8 µg/mL) in data set [7]; 30 µM (≈ 15.1 µg/mL) in data set [8]; 16 µM (≈ 8.04 µg/mL) in data set [9]; 250 µM in data set [10] (XL1-Blue MRF' + pQE30-SHF6R); 4000 µM in data set [10] (XL1-Blue MRF' + pQE30-nat); below 30 µM in data set [10] (XL1-Blue MRF' + pQE30). The “Vmax/Km of the reaction with ST-F relative to the reaction with ST-D” value in data set [2] (rSttH) is on record as 4 fold. In addition, the Vmax in [2] was determined as 42.26 ± 2.8 U/mg. Also, the Km in data set [3] was 960 ± 190 µM.

Take `NCCCC(N)CC(=O)NC1C(/N=C2/NC(C(=O)O)C(C(O)CN)N2)OC(CO)C(OC(N)=O)C1O` (centres unmarked) [ST-F-acid]: the antimicrobial activity entry in data set [11] was “lost almost all of its antimicrobial activity”. For the same molecule, the “Minimum inhibitory concentration (MIC)” value in [1] is 2 (126) mM; in data set [4], 2 (126) mM; in data set [6], above 4000 µM; in [7] it was above 4000 µM; in data set [8] it was 4000 µM (≈ 2080 µg/mL); in data set [9], 4000 µM (≈ 2080 µg/mL). The “ratio of MICs of ST-acid and parent ST (c/a or d/b)” value is on record as above 64 in [6], above 32 in [7], 133 in data set [8] and 250 in data set [9]. The antibiotic activity entry in [12] is listed as “did not exhibit antibiotic activity”.

Take “lactam ring-opened streptothricin D derivative [ST-D-acid]”: the “Minimum inhibitory concentration (MIC)” value was 0.06 (15) mM in data set [1]; 0.06 (15) mM in data set [4]; 1000 µM in data set [6]; 1000 µM in [7]; 250 µM in data set [8]; 125 µM in data set [9]. The antimicrobial activity result in data set [1] and in [4] was “particularly strong antimicrobial activity” in each case. Also, the “ratio of MICs of ST-acid and parent ST (c/a or d/b)” value is 250 in data set [6], 125 in data set [7], 31.3 in data set [8] and 31.3 in [9].

B1: rSttH: recombinant lactam ring-opening enzyme from Streptomyces albulus NBRC14147, N-terminal 6× His Tag fused protein (protein)
chain: VTAMPPETAAPPETAAPARPLRPVQALLVVDVQTAFVSGAEAVPEAARVLDRTRGLLARARTAGALVVHLQNDGAPGAVDAPHTPGWELHLPVEPGPREHVVRKTEDDGFADTGLGALLDAAGVTELAVCGVLSEMCVAATARTALELGHRVVLPHDAHATYDIPAAPDISDTVPAAMSSRAAEWALGDEVEIVPRAAAVPFVAPPLAPAPEAPAAAAAPAAGTGLSPAGPPPAPAR
modifications: N-terminal 6xHis tag; streptomyces albulus
notes: recombinant lactam ring-opening enzyme from Streptomyces albulus NBRC14147, N-terminal 6× His Tag fused protein
As to B1, in data set [13] (100 mM buffers: NaPB pH 4.5 to 7, Tris-HCl pH 7 to 10), the “optimal pH (activity peak)” value was 6.5. In addition, the “enzymatic activity relative to maximum activity” value in data set [13] (at 65° C., 100 mM NaPB (pH 6.5)) was “approximately 90%”. Also, in [13] (range 25° C. to 75° C., 100 mM NaPB (pH 6.5)), the “temperature of greatest enzymatic activity” value turned out to be 45 °C.

One may read the Km as the substrate concentration at which the rate is half of its maximum.

(Values after US7892784B2, “Lactam ring-opening enzyme and use thereof” (priority 2006, dated 2011).)
